This passage reports TGI and GI50 results from PubChem BioAssay (NCI).

SMILES strings stand for the structures.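 Each compound was tested at five concentrations against cells in 96-well plates for 48 hours. GI50 is the concentration that inhibits growth by half. At the TGI there is no net growth.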

Common to all, as to test: NCI anticancer screen, dose series, 48 h
The subject of test [1] is NCI-H23 lung.
The subject of test [2] is SW-620 colon.
Test [3] relates to SK-OV-3 ovarian.
The subject of test [4] is EKVX NSCLC.
Test [5] concerns NCI-H226 lung.
The subject of test [6] is UO-31 renal.
For test [7], the system named is SF-539 CNS.
Test [8] has as its system A549 NSCLC.
The test system of test [9] is K-562 leukemia.
The test system of test [10] is UACC-62 melanoma.

Regarding `CC(C)(C)C1CCC(=O)C(C(O)CC2CC(=O)N(c3ccccc3)C(=O)C2)C1` (stereo unspecified), the TGI in test [1], in test [2], in [3], in test [4], in [5] and in test [6] was above 100 µM in each case. In addition, the TGI in test [7], in test [8], in [9] and in [10] was above 100 µM in each case.

With `CCCCCN(CCCCC)C(=O)[C@H](CCC(=O)OCc1ccccc1)NC(=O)c1cc2ccccc2[nH]1`, the TGI in test [1], in test [2], in test [3], in test [4], in [5] and in test [6] was above 100 µM throughout. Further, the TGI in [7], in [8], in test [9] and in test [10] was above 100 µM in each case.

For `O=C(COC(=O)c1cccc2c(=O)c3ccccc3[nH]c12)Nc1ccc(S(=O)(=O)Nc2ncccn2)cc1`, the TGI in test [1], in [2], in [3], in test [4], in [5] and in test [6] was above 100 µM throughout. Also, the TGI in test [7] was 39.1 µM; in test [8], above 100 µM; in test [9] it was 90.7 µM; in [10], 39.7 µM.

In the case of `CC1=CC2=C(C#N)C(=O)OC2(C)C(c2ccccc2)C1` (stereo unspecified), the TGI in test [2], in [3], in test [4], in [5], in test [6] and in [7] was above 100 µM in each case. In addition, the TGI in test [8], in [9] and in test [10] was above 100 µM in each case.

Consider `C=C1C(=O)O[C@H]2[C@H]1CC/C(Cn1cc(-c3ccsc3)nn1)=C\CC[C@@]1(C)O[C@@H]21`, for which the GI50 is 1.82 µM in test [1]; 1.32 µM in test [2]; 17.4 µM in test [3]; 2.33 µM in test [4]; 2.09 µM in [5]; 1.35 µM in test [6]. Further, the GI50 in [7] was 1.8 µM; in test [8], 8.61 µM; in test [9], 2.51 µM. Also, the TGI in test [1] stood at 4 µM; in test [2], 2.68 µM; in [3] it was 31.4 µM; in [4], 7.76 µM; in test [5] it was 5.51 µM; in [6] it was 3.18 µM. Moreover, the TGI came out at 3.47 µM in [7], 23.1 µM in [8] and 11.7 µM in [9].

For the compound `CC(=Nc1ccccc1)C1=C(O)C(Cc2ccc(F)cc2)NC1=O` (stereo unspecified), the GI50 in test [1] is 1.71 µM; in test [2] it was 0.432 µM; in test [3] it was 1.23 µM; in test [5], 39.5 µM; in test [6], 5.42 µM; in [7], 1.36 µM. Besides, the GI50 in test [8] is 0.675 µM; in test [9] it was 0.343 µM; in test [10], 0.664 µM. Moreover, the TGI was above 100 µM in test [1]; above 100 µM in test [2]; 9.01 µM in test [3]; above 100 µM in test [5]; above 100 µM in [6]; 12.1 µM in test [7]. Besides, the TGI in test [8], in test [9] and in test [10] was above 100 µM in each case.

`Cn1cc2ccccc2c1-c1nc(F)nc(Nc2ccc(N)cc2)n1`: the TGI in test [1] is 29.3 µM; in test [2], 35 µM; in [3] it was 33.8 µM; in test [4], 60.4 µM; in test [5] it was 32.7 µM; in test [6], 53.8 µM. In addition, the results for the TGI in test [7], in test [8] and in test [9] were 35.1 µM, 65.3 µM and above 100 µM, respectively.

In the case of `CC(=O)OC1(C#N)CC2OC1C1N=NN(C(=O)OC(C)(C)C)C21` (stereo unspecified), the TGI in test [2] was 23.1 µM; in test [3], above 100 µM; in test [4], above 100 µM; in [5], above 100 µM; in test [6], above 100 µM; in test [7], above 100 µM. Besides, the figures for the TGI in test [9] and in [10] were above 100 µM and 42.2 µM, respectively.

Take `C[C@@H]1OC(=O)NN=C1c1ccc(-c2ccc(F)cc2)c(C(F)(F)F)c1`: the GI50 in test [1] was 7.17 µM; in test [2] it was 10.2 µM; in test [3] it was 12.6 µM; in [5], 2.57 µM; in test [6], 7.79 µM; in [7] it was 11.2 µM. Also, the results for the GI50 in [8] and in test [9] were 8.21 µM and 3.2 µM, respectively. Besides, the TGI came to 21.2 µM in test [1]; 25.3 µM in test [2]; 27.5 µM in test [3]; 12.4 µM in [4]; 20.6 µM in [5]; 20.9 µM in test [6]. The results for the TGI in test [7], in test [8] and in test [9] were 24.3 µM, 22.8 µM and above 100 µM, respectively.

With `COC(=O)C1=C(O)c2cc3c(cc2[C@H](c2cc(OC)c(OC)c(OC)c2)C1)OCO3`, the TGI in test [1] was above 100 µM; in test [2] it was above 100 µM; in test [3] it was above 100 µM; in [5] it was above 100 µM; in [6], 36.3 µM; in test [7], above 100 µM. Also, the figures for the TGI in [8], in [9] and in [10] were above 100 µM, above 100 µM and 27.9 µM, respectively.

For `COc1c(Cl)[c]([Hg][O]C(C)=O)c(NCC(C)=O)c(OC)[c]1[Hg][O]C(C)=O`, the GI50 is 11.2 µM in [1]; 19.6 µM in test [2]; 24.5 µM in test [3]; 27.2 µM in test [4]; 18.7 µM in test [5]; 22 µM in [6]. Also, the GI50 was 2.92 µM in test [7], 81.6 µM in test [8] and 11.8 µM in test [9]. Also, the TGI in test [1] worked out at 28.8 µM; in test [2], 62.4 µM; in [3] it was 45.6 µM; in test [4] it was 65.2 µM; in test [5], 43.1 µM; in test [6], 40 µM. Also, the TGI in test [7] is 13.3 µM; in test [8], above 100 µM; in test [9], above 100 µM.
